# Test results: publication doi:10.1101/2022.04.02.486831v1 (biorxiv, 2022)
# Target: T1, PsmtLPD1 (mtLPD1; PsL) (Lathyrus oleraceus, UniProt P31023)
# T1 sequence (P31023 32-501): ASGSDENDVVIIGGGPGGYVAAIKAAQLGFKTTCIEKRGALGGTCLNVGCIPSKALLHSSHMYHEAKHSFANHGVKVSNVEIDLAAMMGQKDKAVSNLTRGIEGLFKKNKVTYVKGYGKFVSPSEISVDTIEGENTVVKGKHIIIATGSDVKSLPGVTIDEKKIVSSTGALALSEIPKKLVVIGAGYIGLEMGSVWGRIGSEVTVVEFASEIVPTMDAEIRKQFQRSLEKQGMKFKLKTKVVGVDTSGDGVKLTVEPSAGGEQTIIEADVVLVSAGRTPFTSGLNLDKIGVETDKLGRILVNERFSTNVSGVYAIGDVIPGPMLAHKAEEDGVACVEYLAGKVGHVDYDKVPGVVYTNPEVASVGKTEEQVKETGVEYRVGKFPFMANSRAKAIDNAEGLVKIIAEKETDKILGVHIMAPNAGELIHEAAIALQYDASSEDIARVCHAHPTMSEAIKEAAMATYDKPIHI
# Assay: spectrophotometric at […] nm, forward direction
# Type: biochemical
structure (smiles),measurement,value
NC(=O)C1=CN([C@@H]2O[C@H](COP(=O)(O)OP(=O)(O)OC[C@H]3O[C@@H](n4cnc5c(N)ncnc54)[C@H](O)[C@@H]3O)[C@@H](O)[C@H]2O)C=CC1 [NADH],Ki,~66.1 µM
